{
  "source": "patent US8895561B2",
  "about": "“Compounds and methods for treating candidiasis and aspergillus infections” (Cellceutix Corporation, priority 2012, dated 2014)",
  "key": {"C. albicans": {"tested_on": "C. albicans", "experiment": "Mouse Candida sepsis model, kidney burden", "assay_type": "in vivo", "conditions": "neutropenic mice, IV 1 hour after infection, kidneys at 24 hours", "procedure": "Mice were made neutropenic with i.p. injections of cyclophosphamide (150 mg/kg in 10 mL/kg) at 4 and 1 day before inoculation. Each animal was then inoculated by injecting 0.1 mL of inoculum of C. albicans in a tail vein. The standard was administered orally and the test compounds by IV 1 hour after infection. The kidneys were collected from four mice in Group 1 at 1 hour after infection and from the remaining mice in the study at 24 hours after infection. Kidneys were combined in a sterile tube. An aliquot of sterile PBS were added to each tube and the contents homogenized with a tissue homogenizer. Serial dilutions of the tissue homogenates were conducted, 0.1 mL aliquots were spread on SDA plates and the plates incubated at 35° C. overnight. The CFU/kidneys were determined from colony counts. One-way ANOVA with Bonferroni Multiple Comparisons Test was performed using GraphPad InStat version 3.00 for Windows 95, GraphPad Software, San Diego Calif. USA."}, "C. albicans GDH2346 [1]": {"tested_on": "C. albicans GDH2346", "experiment": "Cellular efflux, ATP release by luciferase assay", "assay_type": "cell-based", "procedure": "(A) C. albicans GDH2346 was treated with either Compound 100 or histatin 5 for 30 minutes, followed by the separation of the extracellular medium and the cells. Intracellular and extracellular ATP levels were quantified by luciferase assay and measurement in a luminometer, relative to a standard control. Treatment 1=no treatment; Treatment 2=16 μg/mL Compound 100; Treatment 3=32 μg/mL Compound 100; and Treatment 4=Histatin 5 (1 mg/mL). (B) Time dependent release of ATP of cells treated with Compound 100 at 32 μg/mL. (C) Dose response of cells treated for 30 minutes, followed by quantification of extracellular ATP."}, "C. albicans GDH2346 [2]": {"tested_on": "C. albicans GDH2346", "experiment": "Membrane permeabilization, PI staining and flow cytometry", "assay_type": "cell-based", "conditions": "32 μg/mL, 5-minute treatment", "procedure": "(A) C. albicans GDH2346 was treated with Compound 100 at the concentrations indicated ([…]) for 30 minutes, followed by staining with PI and quantification by flow cytometry. Ethanol treatment was used to establish 100% uptake. (B) Cells were treated with Compound 100 at 32 μg/mL for the times indicated. To determine whether the compounds act at the membrane, like many host defense proteins, or intracellularly like histatins, the ability of Compound 100 to cause membrane permeability was assessed. Dose-dependent membrane permeabilization of Candida, as shown by cellular accumulation of PI, was evident within 30 minutes at 8 to 32 μg/mL Compound 100 concentrations (see FIG. 3A). Influx was rapid, where >75% of cells were permeabilized after a 5-minute treatment with Compound 100 at 32 μg/mL (see FIG. 3B)."}, "[3]": {"tested_on": "C. albicans mature biofilms", "experiment": "Metabolic activity of mature biofilms grown at an air-liquid interface", "assay_type": "cell-based"}, "A. niger (AN1)": {"tested_on": "A. niger (AN1)", "experiment": "Anti-Aspergillus screen, CLSI M38-A, visual inhibition of growth", "assay_type": "cell-based", "conditions": "screening concentration 10 μM, 24-48 hours", "procedure": "(§1) The in vitro efficacy of a library of compounds was assessed for antifungal activity against A. niger (AN1), A. fumigatus ([…]) and A. flavus (NRRL3357) and compared to that of Itraconazole. For a subset of compounds selected based upon efficacy in the screening study a full MIC profile was conducted. Efficacy of test articles was determined in RPMI 1640 broth with MOPS buffered to pH7.2 in accordance with CLSI guidelines M38-A for Antifungal Susceptibility Testing of Filamentous Fungi. The method was modified by using flat well plates to allow microscopic identification of growth. The final screening concentration of each test article was 10 μM. Assay plates were incubated aerobically at 37° C. for 24-48 hours. Following incubation, plates were assessed visually (by eye and microscopically) for inhibition of growth. Inhibition was recorded at 50%, 80% and 100% inhibition compared to the positive control."}, "A. flavus (NRRL3357)": {"tested_on": "A. flavus (NRRL3357)", "experiment": "Anti-Aspergillus screen, CLSI M38-A, visual inhibition of growth", "assay_type": "cell-based", "conditions": "screening concentration 10 μM, 24-48 hours", "procedure": "as §1"}, "A. fumigatus (A1163)": {"tested_on": "A. fumigatus (A1163)", "experiment": "Anti-Aspergillus screen, CLSI M38-A, visual inhibition of growth", "assay_type": "cell-based", "conditions": "screening concentration 10 μM, 24-48 hours", "procedure": "as §1"}, "[4]": {"experiment": "Cytotoxicity, MTS viability assay", "assay_type": "cell-based, human", "conditions": "Table 6", "procedure,_shortened": "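Cytotoxicity in mouse 3T3 fibroblasts and human HepG2 liver cells measured by MTS viability assay. Values reported as EC50.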"}},
  "note": "pEC50: −log10 of the molar value. Like-named read-outs stand apart in the source and are kept apart here.",
  "data": [
    {"smiles": "NCCCOc1cc(OCCCN)cc(-c2ccc3c(c2)c2cc(-c4cc(OCCCN)cc(OCCCN)c4)ccc2n3CCCN)c1", "note": "[Compound 135]", "values": [
      {"measurement": "reductions in tissue burden from treatment onset", "setting": "C. albicans", "result": "≥ 1.5", "unit": "log10"}
    ]},
    {"smiles": "NCCSc1cc(SCCN)c(C(F)(F)F)cc1NC(=O)c1cc(C(=O)Nc2cc(C(F)(F)F)c(SCCN)cc2SCCN)ncn1", "note": "[Compound 100]", "values": [
      {"measurement": "time to significant extracellular ATP accumulation", "setting": "C. albicans GDH2346 [1]; 32 μg/mL", "result": "≤ 20", "unit": "min"},
      {"measurement": "ATP efflux (intracellular vs extracellular ATP)", "setting": "C. albicans GDH2346 [1]; 32 μg/mL, 30 minutes", "result": "almost all of the ATP from the cell was extracellular"},
      {"measurement": "concentration with detectable extracellular ATP levels", "setting": "C. albicans GDH2346 [1]; 30 minutes of exposure", "result": 16, "unit": "µg/mL"},
      {"measurement": "cells permeabilized (PI uptake)", "setting": "C. albicans GDH2346 [2]", "result": "> 75", "unit": "%"},
      {"measurement": "metabolic activity in mature biofilms", "setting": "[3]", "result": "significant reduction of metabolic activity"}
    ]},
    {"smiles": "N=C(N)N1CCN(c2ccc(-c3cc(-c4ccc(N5CCN(C(=N)N)CC5)cc4)ncn3)cc2)CC1", "note": "[Compound 136]", "values": [
      {"measurement": "inhibition at 10 µM", "setting": "A. niger (AN1)", "result": 100, "unit": "%"},
      {"measurement": "inhibition at 10 µM", "setting": "A. flavus (NRRL3357)", "result": 100, "unit": "%"},
      {"measurement": "inhibition at 10 µM", "setting": "A. fumigatus (A1163)", "result": 100, "unit": "%"},
      {"measurement": "pEC50", "setting": "[4]; human, HepG2 cells (transformed liver), read-out: Cytotoxicity EC50 Human HepG2", "result": 3.34},
      {"measurement": "pEC50", "setting": "[4]; mouse, 3T3 fibroblasts, read-out: Cytotoxicity EC50 Mouse 3T3", "result": 3.51}
    ]}
  ]
}
